From patent US5208259A, “Diaryl ether hetrocycles” (Imperial Chemical Industries, priority 1989, dated 1993) come the findings set out here.

Experiment [1] concerns 5-LO. Briefly: Test b) heparinised human blood challenged with A23187, LTB4 radioimmunoassay. The experiment is classed as cell-based. The note with it: A23187, against LTB4. On the procedure: b) An in vitro assay system involving incubating a test compound with heparinised human blood, prior to challenge with the calcium ionophore A23187 and then indirectly measuring the inhibitory effects on 5-L0 by assaying the amount of LTB4 using the specific radioimmunoassay described by Carey and Forder (F. Carey and R. A. Forder, Brit. J. Pharmacol. 1985, 84, 34P) which involves the use of a protein-LTB4 conjugate produced using the procedure of Young et alia (Prostaglandins, 1983, 26(4), 605-613). The effects of a test compound on the enzyme cyclooxygenase (which is involved in the alternative metabolic pathway for arachidonic acid and gives rise to prostaglandins, thromboxanes and related metabolites) may be measured at the same time using the specific radioimmunoassay for thromboxane B2 (TxB2) described by Carey and Forder (see above). This test provides an indication of the effects of a test compound against 5-L0 and also cylooxygenase in the presence of blood cells and proteins. It permits the selectivity of the inhibitory effect on 5-L0 or cyclooxygenase to be assessed.

Experiment [2] relates to 5-LO. Put plainly: Test c) ex vivo assay: oral administration, blood collection, A23187 challenge, radioimmunoassay of LTB4. The format is in vivo. The method, then:
c) An ex vivo assay system, which is a variation of test b) above, involving administration of a test compound (usually orally as the suspension produced when a solution of the test compound in dimethylsulphoxide is added to carboxymethylcellulose), blood collection, heparinisation, challenge with A23187 and radioimmunoassay of LTB4 and TxB2. This test provides an indication of the bioavailability of a test compound as an inhibitor of 5-L0 or cyclooxygenase.

The test system of experiment [3] is 5-LO. Put plainly: Test g) zymosan-induced liberation of LTB4 within air pouch of male rats. The experiment is classed as in vivo. As to conditions: 3 h; Test g), rat air pouch, oral. The method, then:
g) An in vivo system involving measuring the effects of a test compound administered orally against the liberation of LTB4 induced by zymosan within an air pouch generated within the subcutaneous tissue of the back of male rats. The rats are anaesthetised and air pouches are formed by the injection of sterile air (20 ml). A further injection of air (10 ml) is similarly given after 3 days). At 6 days after the initial air injection the test compound is administered (usually orally as the suspension produced when a solution of the test compound in dimethylsulphoxide is added to hydroxypropylmethylcellulose), followed by the intrapouch injection of zymosan (1 ml of a 1% suspension in physiological saline). After 3 hours the rats are killed, the air pouches are lavaged with physiological saline, and the specific radioimmunoassay described above is used to assay LTB4 in the washings. This test provides an indication of inhibitory effects against 5-L0 in an inflammatory milieu.

A word on the IC50: it is the concentration that inhibits the measured activity by half. Read a high IC50 as lower potency. What is called ED50 is the dose that gives a 50% effect, or the effect in half of the subjects.

`COC1(c2cccc(Sc3ccc4ccccc4c3)c2)CCOCC1` [4-methoxy-4-[3-(naphth-2-ylthio)phenyl]tetrahydropyran] showed an IC50 in the experiment on 5-LO [1] of less than 150 nM. Moreover, the ED50 in the experiment with 5-LO [2] was 3 mg/kg; in the experiment with 5-LO [3], less than 10 mg/kg.
In the experiment on 5-LO [1], `CO[C@]1(c2cc(F)cc(Sc3ccc(C(C)(C)C)cc3)c2)CCO[C@@H](C)C1` [(2S,4R)-4-[5-fluoro-3-(4-tert-butylphenylthio)phenyl]-4-methoxy-2-methyltetrahydropyran] yielded an IC50 of less than 150 nM. Also, the ED50 in the experiment with 5-LO [2] amounted to 2 mg/kg; in the experiment on 5-LO [3] it was 0.75 mg/kg.
